According to patent US11098083B2, “Peptide that regulates fat metabolism and method for regulating fat metabolism” (SHENZHEN INSTITUTES OF ADVANCED TECHNOLOGY, priority 2017, dated 2021):
Ends that are not written are not given here.

Legend:
[1] = system: HFD mice; experiment: gavage of peptides in HFD mice for 7 weeks: body weight; format: in vivo, C57BL/6 mice; settings: gavage 2 pmol/g of body weight for 7 weeks, compared with HFD control group, FIG. 7A
Description: Six-week-old male wild-type C57BL/6 mice may be divided into 6 groups, 6 mice in each group. Group #1 may be provided with ND, and groups #2 to #6 may be provided with HFD. Group #2 may be treated as a HFD control group. Groups #3 to #6 may be experimental groups, and mice ingroups #3 to #6 may be gavaged with OCN, ISAP1, ISAP2, and ISAP3 respectively at 2 pmol/g of body weight for 7 weeks. Body weight of each mouse may be monitored and measured once a week.
Six-week-old male wild-type C57BL/6 mice may be divided into 6 groups, 6 in each group. Group #1 may be provided with ND to be a ND control group, and groups #2 to #6 may be provided with HFD. Group #2 may be treated as a HFD control group. Groups #3 to #6 may be treated as experimental groups and may be gavaged with OCN, ISAP1, ISAP2, and ISAP3 respectively at 2 pmol/g of body weight daily for 7 weeks. Body weight may be monitored and measured once a week.
Six-week-old male wild-type C57BL/6 mice may be divided into 6 groups, 6 in each group. Group #1 may be provided with ND to be a ND control group, groups #2 to #6 may be provided with HFD. Group #2 may be treated as a HFD control group. Groups #3 to #6 may be treated as experimental groups, and may be gavaged with OCN, ISAP1, ISAP2, and ISAP3 respectively at 2 pmol/g of body weight daily for 7 weeks. A body weight of each mouse may be monitored and measured once a week.

[2] = system: DIO-NAFLD mice; experiment: i.p. injection of ISAP1 in DIO-NAFLD mice: liver fat (appearance, oil red O staining); format: in vivo, C57BL/6 mice; settings: daily i.p. injection 6 weeks
Description: S122: effect of i.p. injection of ISAP1 on the liver may be studied.
In S121, livers may be collected while collecting the adipose tissues, and appearance of the livers may be photographed. A part of liver tissues may be taken for frozen sectioning, stained with oil red O for microscopic observation, and then a same area may be quantitatively analyzed. […] The […] the color is, the higher the fat content is contained.

[3] = system: DIO-NAFLD mice; experiment: i.p. injection of ISAP1 in DIO-NAFLD mice: epididymal fat pad; format: in vivo, C57BL/6 mice
Description: S110: a diet-induced obesity and nonalcoholic fatty liver disease (DIO-NAFLD) mouse model by HFD feeding may be established.
Thirty specific pathogen free (SPF) level healthy 6-week-old male C57BL/6 mice may be purchased from the Experimental Animal Center of Guangdong Province. A body mass of each mouse may be 18 g to 22 g. The mice may be divided into two groups, housed in a SPF-grade animal facility of SIAT. Six mice may be fed with ND (the ND contains 5% of fat; 53% of carbohydrate; 23% of protein, having total calories of […]) for 12 weeks to be a ND control group, and may be allowed to have food and water ad lib. The other mice may be fed with HFD (the HFD may be D12451, Research Diets, Inc.) for 12 weeks, and may be allowed to have food and water ad lib. Physiological indexes of the mice may be detected. […] In the present embodiment, an average body weight of the DIO-NAFLD mice may be more than 40 g. Comparison of average body weight of the mice of the established model with that of the mice in the ND control group is shown in FIG. 1. The arrow indicates a time point at which the HFD be started.
S121: effect of i.p. injection of ISAP1 on epididymal fat pad may be studied.
When the body weight of the each mouse fed with the HFD is more than 40 g, and when the blood glucose level of the each mouse is above 10 mMol, each DIO-NAFLD mouse may be treated with i.p. injection of ISAP1 for 6 consecutive weeks. The DIO-NAFLD mice may be divided into 4 groups, 6 mice in each group. ISAP1 may be dissolved in normal saline solution containing 0.01% of BSA. A dosage of 20 pmol/g of ISAP1 may be i.p. injected into each DIO-NAFLD mouse in group #1 once a day, and a dosage of 2 pmol/g of ISAP1 may be i.p. injected into each DIO-NAFLD mouse in group #2 once a day. OCN (mouse OCN protein) may be prepared and administered similarly as the ISAP1 at a dosage of 6 pmol/g to each mouse in group #3. The mice in group #4 may be treated with normal saline only as a HFD control group. After 6 weeks, the mice may be euthanized by application of 95% CO2, and epididymal fat pads of 4 mice selected from each group and an epididymal fat pad of a mouse from the ND control group may collected and weighed. Paraffin slices of each epididymal fat pad may be prepared, and an area of the adipocytes may be observed by microscopy.
Statistical analysis may be performed to compare with the HFD control group, wherein *: P<0.05, **: P<0.01, and ***: P<0.001.

[4] = system: wild-type C57BL/6 mice; experiment: intestinal fat (olive oil) absorption in normal mice, i.p. injection of peptide; format: in vivo; settings: FIG. 5
Description: S140: effect of acute gavage of ISAP1 on intestinal fat absorption in normal mice may be studied.
Six-week-old male wild-type C57BL/6 mice may be divided into four groups, three in each group, three out of the four groups of mice may be intestinally perfused with 200 μl sterilized olive oil solution (Sigma), and the other one group of mice may be intestinally perfused with normal saline solution to be a negative control group. After 30 minutes, two groups of the mice treated with sterilized olive oil solution may be i.p. injected with OCN (6 pmol/g) and ISAP1 (6 pmol/g) respectively, and the other one group of the mice treated with sterilized olive oil solution may be i.p. injected with normal saline solution to be a saline control group. Further the mice of the negative control group solution may also be i.p. injected with normal saline solution to be the negative group. The mice of all four groups may be sacrificed 30 minutes later. Small intestine samples may be collected. The small intestine sample may be taken from a duodenum to a caecum, divided into 3 segments of equal length. After washing with pre-cooled normal saline solution, a segment close to the duodenum may be frozen and sliced, stained with oil red O and observed for fat absorption.

YLGASVPSPDPLEPT [ISAP1]
body weight [1]: significant weight loss
proportion of fat in the liver (oil red O staining) ([2]; compared with HFD control group, FIG. 3C): decreased significantly
liver fat accumulation (liver appearance) ([2]; vs HFD+carrier, FIG. 3A): significantly reduce the liver fat accumulation
size of the epididymal fat pads ([3]; daily i.p. injection 6 weeks (20 or 2 pmol/g), compared with HFD control group, FIG. 2A): significantly reduce the size
weight (average mass) of the epididymal fat pad ([3]; daily i.p. injection 6 weeks (20 or 2 pmol/g), compared with HFD control group, FIG. 2B): significantly reduce the weight
sizes of adipocytes, H&E staining of epididymal fat pads ([3]; daily i.p. injection 6 weeks, compared with HFD control group, FIG. 2C): significantly reduce sizes of adipocytes
average surface areas of single adipocytes calculated from H&E stained slices ([3]; daily i.p. injection 6 weeks, double-blind, FIG. 2D): significantly reduce the sizes of the adipocytes
mouse intestinal absorption of the olive oil (oil red O-positive area / total area of intestinal villi) ([4]; 6 pmol/g i.p. 30 min after 200 μl olive oil, compared with saline control group): effectively reduce
reduction in olive oil absorption compared with OCN treatment ([4]; 6 pmol/g i.p., OCN 6 pmol/g): even more effective than the OCN treatment
